The values below come from patent US7012099B2, “Use of substituted 4-amino-1-phenylbutan-2-ol compounds as medicaments” (Gruenenthal GmbH, priority 1999, dated 2006).

Structures can show the parent of a compound that is named as a salt.

In general, Ki refers to a measure of affinity in units of concentration, obtained from inhibition or displacement.

The target in the assay is T1, ORL1 receptor (Homo sapiens, UniProt P41146).
T1 construct: expressed in transfected cells; host or cells: CHO (recombinant CHO-ORL1 cells), membranes
T1 sequence (P41146 whole entry): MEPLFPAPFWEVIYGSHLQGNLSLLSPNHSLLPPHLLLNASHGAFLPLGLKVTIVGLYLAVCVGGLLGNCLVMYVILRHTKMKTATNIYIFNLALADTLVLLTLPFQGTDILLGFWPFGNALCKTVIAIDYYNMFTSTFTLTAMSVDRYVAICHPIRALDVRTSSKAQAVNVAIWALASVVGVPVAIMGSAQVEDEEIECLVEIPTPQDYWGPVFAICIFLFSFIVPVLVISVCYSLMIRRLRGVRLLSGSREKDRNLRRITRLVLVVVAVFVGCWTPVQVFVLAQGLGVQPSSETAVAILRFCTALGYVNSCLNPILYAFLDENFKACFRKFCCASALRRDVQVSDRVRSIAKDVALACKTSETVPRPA
The experiment in a line: ORL1 receptor binding assay using 3H-nociceptin/orphanin FQ with membranes of recombinant CHO-ORL1 cells. The conditions noted are these: 3H-nociceptin/orphanin FQ 0.5 nM, WGA-SPA beads, one hour at room temperature. As to the method:
The 4-amino-1-phenylbutan-2-ol compounds of the general formula I have been studied in a receptor binding assay using ^3H-nociceptin/orphanin FQ with membranes of recombinant CHO-ORL1 cells. That test system was carried out according to the method put forward by Ardati et al. (Mol. Pharmacol., 51, 1997, p. 816–824). The concentration of ^3H-nociceptin/orphanin FQ in those tests was 0.5 nM. The binding assays were carried out using in each case 20 μg of membrane protein per 200 μl batch in 50 mM Hepes, pH 7.4, 10 mM MgCl2 and 1 mM EDTA. Binding to the ORL1 receptor was determined using in each case 1 mg of WGA-SPA beads (Amersham-Pharmacia, Freiburg) by incubation of the batch for one hour at room temperature and subsequent measurement in a Trilux scintillation counter (Wallac, Finland). The affinity is given as the Ki value.
For each of the compounds of Examples 1 to 7, the affinity for the ORL1 receptor was determined according to the mentioned molecular-pharmacological investigations.
For `CN(C)C(c1ccccc1)C1CCCCC1(O)Cc1ccccc1Cl` (stereo not shown) [Example 1, 1-(2-Chlorobenzyl)-2-(dimethylaminophenylmethyl)cyclohexanol hydrochloride], the Ki was 6 µM.

Turning to `CN(C)C(c1ccccc1)C1CCCCC1(O)Cc1cccc(Cl)c1` (stereo not shown) [Example 2, 1-(3-chlorobenzyl)-2-(dimethylaminophenylmethyl)cyclohexanol hydrochloride], the Ki stood at 2.1 µM. With `CN(C)C(c1ccccc1)C1CCCCC1(O)Cc1ccc(Cl)cc1` (stereo not shown) [Example 3, 1-(4-chlorobenzyl)-2-(dimethylaminophenylmethyl)-1-cyclohexanol hydrochloride] the figure was 1.7 µM; with `CN(C)C(c1ccccc1)C1CCCCC1(O)Cc1ccc(F)c(F)c1` (stereo not shown) [Example 4, 1-(3,4-difluorobenzyl)-2-(dimethylaminophenylmethyl)cyclohexanol hydrochloride], 1.9 µM; with `CN(C)C(c1ccccc1)C1CCCCC1(O)Cc1cccc(C(F)(F)F)c1` (stereo not shown) [Example 5, 2-(dimethylaminophenylmethyl)-1-(3-trifluoromethylbenzyl)cyclohexanol hydrochloride], 0.9 µM. For `CN(C)C(c1cccs1)C1CCCCC1(O)Cc1cccc(C(F)(F)F)c1` (stereo not shown) [Example 6, 2-(dimethylaminothiophen-2-ylmethyl)-1-(3-trifluoromethylbenzyl)cyclohexanol Hydrochloride], the Ki amounted to 0.6 µM. With `CN(C)C(c1ccsc1)C1CCCCC1(O)Cc1cccc(C(F)(F)F)c1` (stereo not shown) [Example 7, 2-(dimethylaminothiophen-3-ylmethyl)-1-(3-trifluoromethylbenzyl)cyclohexanol hydrochloride] the figure was 0.33 µM.
